Measured values as given in patent US12077503B2, “Substituted cyclic amides and their use as herbicides” (FMC CORPORATION, priority 2015, dated 2024).

Tests used:
Assay type in all cases: in vivo
[1] = system: redroot pigweed (Amaranthus retroflexus); experiment: Test G Post-Emergence Protocol; conditions: Amaranthus retroflexus, post-emergence, 312 h; for pest or weed control at 15.625 g/ha: 15.625 g ai/ha, evaluated after 13 days (100=total damage to plant; 0=no damage to plant), read-out: Pigweed, Redroot damage rating; for pest or weed control at 62.5 g/ha: 62.5 g ai/ha, read-out: Pigweed, Redroot damage rating (100=total damage to plant; 0=no damage to plant); for pest or weed control at 62.5 g/ha / pest or weed control at 250 g/ha: evaluated after 13 days; for pest or weed control at 250 g/ha: 250 g ai/ha, read-out: damage to plant, Pigweed, Redroot (100=total damage to plant; 0=no damage to plant)
How it was run: (§1)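 Sow in soil; grow 8 d (24/16 °C, 14 h light, 65% humidity); spray 15.625/62.5/250 g/ha in acetone:water 50:50 + 0.5% Tween 20; grow on, water twice daily; score damage 0–100 at 13 d.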

[2] = system: giant foxtail (Setaria faberi); experiment: Test G Post-Emergence Protocol; conditions: Setaria faberi, post-emergence, 312 h; for pest or weed control at 15.625 g/ha: 15.625 g ai/ha, evaluated after 13 days (100=total damage to plant; 0=no damage to plant), read-out: Foxtail, Giant damage rating; for pest or weed control at 62.5 g/ha: 62.5 g ai/ha, read-out: Foxtail, Giant damage rating (100=total damage to plant; 0=no damage to plant); for pest or weed control at 62.5 g/ha / pest or weed control at 250 g/ha: evaluated after 13 days; for pest or weed control at 250 g/ha: 250 g ai/ha, read-out: damage to plant, Foxtail, Giant (100=total damage to plant; 0=no damage to plant)
How it was run: as §1

[3] = system: barnyardgrass (Echinochloa crus-galli); experiment: Test G Post-Emergence Protocol; conditions: Echinochloa crus-galli, post-emergence, 312 h; for pest or weed control at 15.625 g/ha: 15.625 g ai/ha, evaluated after 13 days (100=total damage to plant; 0=no damage to plant), read-out: Barnyardgrass damage rating; for pest or weed control at 62.5 g/ha: 62.5 g ai/ha, read-out: Barnyardgrass damage rating (100=total damage to plant; 0=no damage to plant); for pest or weed control at 62.5 g/ha / pest or weed control at 250 g/ha: evaluated after 13 days; for pest or weed control at 250 g/ha: 250 g ai/ha, read-out: damage to plant, Barnyardgrass (100=total damage to plant; 0=no damage to plant)
How it was run: as §1

[4] = system: ivy-leaved morning glory (Ipomoea hederacea); experiment: Test G Post-Emergence Protocol; conditions: Ipomoea, post-emergence, 312 h; for pest or weed control at 15.625 g/ha: 15.625 g ai/ha, evaluated after 13 days (100=total damage to plant; 0=no damage to plant), read-out: Morningglory, Ivy-leaved damage rating; for pest or weed control at 62.5 g/ha: 62.5 g ai/ha, read-out: Morningglory, Ivy-leaved damage rating (100=total damage to plant; 0=no damage to plant); for pest or weed control at 62.5 g/ha / pest or weed control at 250 g/ha: evaluated after 13 days; for pest or weed control at 250 g/ha: 250 g ai/ha, read-out: damage to plant, Morningglory, Ivy-leaved (100=total damage to plant; 0=no damage to plant)
How it was run: as §1

[5] = system: velvetleaf (Abutilon theophrasti); experiment: Test G Post-Emergence Protocol; conditions: Abutilon theophrasti, post-emergence, 312 h; for pest or weed control at 15.625 g/ha: 15.625 g ai/ha, evaluated after 13 days (100=total damage to plant; 0=no damage to plant), read-out: Velvetleaf damage rating; for pest or weed control at 62.5 g/ha: 62.5 g ai/ha, read-out: Velvetleaf damage rating (100=total damage to plant; 0=no damage to plant); for pest or weed control at 62.5 g/ha / pest or weed control at 250 g/ha: evaluated after 13 days; for pest or weed control at 250 g/ha: 250 g ai/ha, read-out: damage to plant, Velvetleaf (100=total damage to plant; 0=no damage to plant)
How it was run: as §1

corn (Zea mays) [6] = experiment: Test G Post-Emergence Protocol; conditions: Zea mays, post-emergence, 312 h; for plant injury at 15.625 g/ha: 15.625 g ai/ha, evaluated after 13 days (100=total damage to plant; 0=no damage to plant), read-out: Corn damage rating; for plant injury at 62.5 g/ha: 62.5 g ai/ha, read-out: Corn damage rating (100=total damage to plant; 0=no damage to plant); for plant injury at 62.5 g/ha / plant injury at 250 g/ha: evaluated after 13 days; for plant injury at 250 g/ha: 250 g ai/ha, read-out: damage to plant, Corn (100=total damage to plant; 0=no damage to plant)
How it was run: as §1

[7] = system: redroot pigweed (Amaranthus retroflexus); experiment: Test G Pre-Emergence Protocol; conditions: Amaranthus retroflexus, pre-emergence, 312 h, evaluated after 13 days; for pest or weed control at 15.625 g/ha: 15.625 g ai/ha; for pest or weed control at 15.625 g/ha / pest or weed control at 250 g/ha: read-out: Pigweed, Redroot damage rating (100=total damage to plant; 0=no damage to plant); for pest or weed control at 62.5 g/ha: 62.5 g ai/ha, 100=total damage to plant, 0=no damage to plant, read-out: plant damage rating, Pigweed, Redroot; for pest or weed control at 250 g/ha: 250 g ai/ha
How it was run: (§2)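 One day after sowing, pots are treated with a spray of test compound formulated in acetone/water 50:50 plus 0.5% Tween 20, giving 15.625, 62.5 or 250 g/ha. Evaluation on a 0–100 damage scale follows 13 days of glasshouse growth.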

[8] = system: giant foxtail (Setaria faberi); experiment: Test G Pre-Emergence Protocol; conditions: Setaria faberi, pre-emergence, 312 h, evaluated after 13 days; for pest or weed control at 15.625 g/ha: 15.625 g ai/ha; for pest or weed control at 15.625 g/ha / pest or weed control at 250 g/ha: read-out: Foxtail, Giant damage rating (100=total damage to plant; 0=no damage to plant); for pest or weed control at 62.5 g/ha: 62.5 g ai/ha, 100=total damage to plant, 0=no damage to plant, read-out: plant damage rating, Foxtail, Giant; for pest or weed control at 250 g/ha: 250 g ai/ha
How it was run: as §2

[9] = system: barnyardgrass (Echinochloa crus-galli); experiment: Test G Pre-Emergence Protocol; conditions: Echinochloa crus-galli, pre-emergence, 312 h, evaluated after 13 days; for pest or weed control at 15.625 g/ha: 15.625 g ai/ha, read-out: Barnyard grass damage rating (100=total damage to plant; 0=no damage to plant); for pest or weed control at 62.5 g/ha: 62.5 g ai/ha, 100=total damage to plant, 0=no damage to plant, read-out: plant damage rating, Barnyardgrass; for pest or weed control at 250 g/ha: 250 g ai/ha, read-out: Barnyardgrass damage rating (100=total damage to plant; 0=no damage to plant)
How it was run: as §2

[10] = system: ivy-leaved morning glory (Ipomoea hederacea); experiment: Test G Pre-Emergence Protocol; conditions: Ipomoea, pre-emergence, 312 h, evaluated after 13 days; for pest or weed control at 15.625 g/ha: 15.625 g ai/ha, read-out: Morning-glory, Ivy-leaved damage rating (100=total damage to plant; 0=no damage to plant); for pest or weed control at 62.5 g/ha: 62.5 g ai/ha, 100=total damage to plant, 0=no damage to plant, read-out: plant damage rating, Morningglory, Ivy-leaved; for pest or weed control at 250 g/ha: 250 g ai/ha, read-out: Morningglory, Ivy-leaved damage rating (100=total damage to plant; 0=no damage to plant)
How it was run: as §2

[11] = system: velvetleaf (Abutilon theophrasti); experiment: Test G Pre-Emergence Protocol; conditions: Abutilon theophrasti, pre-emergence, 312 h, evaluated after 13 days; for pest or weed control at 15.625 g/ha: 15.625 g ai/ha; for pest or weed control at 15.625 g/ha / pest or weed control at 250 g/ha: read-out: Velvetleaf damage rating (100=total damage to plant; 0=no damage to plant); for pest or weed control at 62.5 g/ha: 62.5 g ai/ha, 100=total damage to plant, 0=no damage to plant, read-out: plant damage rating, Velvetleaf; for pest or weed control at 250 g/ha: 250 g ai/ha
How it was run: as §2

corn (Zea mays) [12] = experiment: Test G Pre-Emergence Protocol; conditions: Zea mays, pre-emergence, 312 h, evaluated after 13 days; for plant injury at 15.625 g/ha: 15.625 g ai/ha; for plant injury at 15.625 g/ha / plant injury at 250 g/ha: read-out: Corn damage rating (100=total damage to plant; 0=no damage to plant); for plant injury at 62.5 g/ha: 62.5 g ai/ha, 100=total damage to plant, 0=no damage to plant, read-out: plant damage rating, Corn; for plant injury at 250 g/ha: 250 g ai/ha
How it was run: as §2

CN1C[C@@H](c2ccc(C(F)(F)F)cc2)[C@H](C(=O)Nc2cccnc2Cl)C1=O (racemic) [Compound 1517]
70%: pest or weed control at 250 g/ha [3] | pest or weed control at 250 g/ha [4] | pest or weed control at 62.5 g/ha [8] | pest or weed control at 62.5 g/ha [9]
90%: pest or weed control at 250 g/ha [9]
30%: pest or weed control at 62.5 g/ha [4] | pest or weed control at 15.625 g/ha [8]
50%: pest or weed control at 62.5 g/ha [3]
0%: pest or weed control at 15.625 g/ha [1] | pest or weed control at 62.5 g/ha [1] | pest or weed control at 15.625 g/ha [3] | pest or weed control at 15.625 g/ha [5] | plant injury at 15.625 g/ha (corn (Zea mays) [6]) | pest or weed control at 15.625 g/ha [7] | pest or weed control at 62.5 g/ha [7] | pest or weed control at 15.625 g/ha [9] | pest or weed control at 15.625 g/ha [10] | pest or weed control at 62.5 g/ha [10] | pest or weed control at 250 g/ha [10] | pest or weed control at 15.625 g/ha [11] | pest or weed control at 62.5 g/ha [11] | pest or weed control at 250 g/ha [11] | plant injury at 15.625 g/ha (corn (Zea mays) [12]) | plant injury at 62.5 g/ha (corn (Zea mays) [12])
10%: pest or weed control at 62.5 g/ha [5] | plant injury at 62.5 g/ha (corn (Zea mays) [6])
60%: pest or weed control at 62.5 g/ha [2] | pest or weed control at 250 g/ha [2] | pest or weed control at 250 g/ha [7]
20%: pest or weed control at 250 g/ha [1] | pest or weed control at 15.625 g/ha [2] | pest or weed control at 15.625 g/ha [4] | pest or weed control at 250 g/ha [5] | plant injury at 250 g/ha (corn (Zea mays) [12])
80%: plant injury at 250 g/ha (corn (Zea mays) [6]) | pest or weed control at 250 g/ha [8]

CN1C[C@@H](c2ccc(C(F)(F)F)cc2)[C@H](C(=O)Nc2cccc3c2CCC3)C1=O (racemic) [Compound 1624]
20%: pest or weed control at 250 g/ha [1] | pest or weed control at 62.5 g/ha [3] | pest or weed control at 62.5 g/ha [4] | pest or weed control at 250 g/ha [4] | pest or weed control at 250 g/ha [7] | pest or weed control at 15.625 g/ha [8]
70%: pest or weed control at 250 g/ha [3]
10%: pest or weed control at 15.625 g/ha [2] | pest or weed control at 15.625 g/ha [4] | pest or weed control at 62.5 g/ha [5] | pest or weed control at 250 g/ha [5] | plant injury at 62.5 g/ha (corn (Zea mays) [6]) | plant injury at 250 g/ha (corn (Zea mays) [6]) | pest or weed control at 250 g/ha [11]
0%: pest or weed control at 15.625 g/ha [1] | pest or weed control at 15.625 g/ha [3] | pest or weed control at 15.625 g/ha [5] | plant injury at 15.625 g/ha (corn (Zea mays) [6]) | pest or weed control at 15.625 g/ha [7] | pest or weed control at 62.5 g/ha [7] | pest or weed control at 15.625 g/ha [9] | pest or weed control at 62.5 g/ha [9] | pest or weed control at 15.625 g/ha [10] | pest or weed control at 62.5 g/ha [10] | pest or weed control at 250 g/ha [10] | pest or weed control at 15.625 g/ha [11] | pest or weed control at 62.5 g/ha [11] | plant injury at 15.625 g/ha (corn (Zea mays) [12]) | plant injury at 62.5 g/ha (corn (Zea mays) [12]) | plant injury at 250 g/ha (corn (Zea mays) [12])
30%: pest or weed control at 62.5 g/ha [1]
80%: pest or weed control at 62.5 g/ha [2] | pest or weed control at 250 g/ha [2] | pest or weed control at 250 g/ha [8] | pest or weed control at 250 g/ha [9]
60%: pest or weed control at 62.5 g/ha [8]
